{"source": "patent US20240270741A1", "about": "(Cogent Biosciences, Inc., priority 2023, published 2024)"}
{"target": "FGFR2 (Homo sapiens, UniProt P21802)", "sequence (P21802 399-821 limits assumed)": "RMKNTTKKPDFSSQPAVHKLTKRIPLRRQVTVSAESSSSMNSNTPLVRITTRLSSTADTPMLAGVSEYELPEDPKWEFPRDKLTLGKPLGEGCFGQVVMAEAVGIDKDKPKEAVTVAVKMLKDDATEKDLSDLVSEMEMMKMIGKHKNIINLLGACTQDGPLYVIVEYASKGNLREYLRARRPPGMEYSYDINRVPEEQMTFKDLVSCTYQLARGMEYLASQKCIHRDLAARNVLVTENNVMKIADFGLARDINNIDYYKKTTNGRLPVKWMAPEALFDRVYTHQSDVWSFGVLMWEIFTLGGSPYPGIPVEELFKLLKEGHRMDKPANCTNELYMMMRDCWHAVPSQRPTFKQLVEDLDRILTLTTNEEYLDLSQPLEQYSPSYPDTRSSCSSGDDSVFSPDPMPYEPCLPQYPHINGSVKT", "test": "FGFR wild type enzyme assay (HTRF KinEASE-TK), FGFR2", "conditions": "Enz FGFR2 (nM), FGFR2 wild type enzyme assay", "units": {"IC50": "nM"}}
{"smiles": "N#Cc1ccccc1Sc1cc(-c2cnn([C@H]3CCNC3)c2)cn2ncc(C#N)c12", "note": "[Example 427, (S)-4-((2-cyanophenyl)thio)-6-(1-(pyrrolidin-3-yl)-1H-pyrazol-4-yl)pyrazolo[1,5-a]pyridine-3-carbonitrile]", "IC50": 0.4}
{"smiles": "CC(=O)N1CCC(n2cc(-c3cc(Sc4ncccc4F)c4c(C#N)cnn4c3)cn2)CC1", "note": "[Example 428, 6-(1-(1-acetylpiperidin-4-yl)-1H-pyrazol-4-yl)-4-((3-fluoropyridin-2-yl)thio)pyrazolo[1,5-a]pyridine-3-carbonitrile]", "IC50": 1}
{"smiles": "CC(=O)N1CCC(n2cc(-c3cc(Sc4ccc(F)cc4C#N)c4c(C#N)cnn4c3)cn2)CC1", "note": "[Example 429, 6-(1-(1-acetylpiperidin-4-yl)-1H-pyrazol-4-yl)-4-((2-cyano-4-fluorophenyl)thio)pyrazolo [1,5-a]pyridine-3-carbonitrile]", "IC50": 1}
{"smiles": "CN1CCC(n2cc(-c3cc(Sc4ncccc4F)c4c(C#N)cnn4c3)nn2)CC1", "note": "[Example 430, 4-((3-fluoropyridin-2-yl)thio)-6-(1-(1-methylpiperidin-4-yl)-1H-1,2,3-triazol-4-yl)pyrazolo[1,5-a]pyridine-3-carbonitrile]", "IC50": 10}
{"smiles": "CC(=O)N1CCC[C@H](n2ncc(-c3cc(Sc4nc(C)c(F)cc4F)c4c(C#N)cnn4c3)c2C)C1", "note": "[Example 431, (S)-6-(1-(1-acetylpiperidin-3-yl)-5-methyl-1H-pyrazol-4-yl)-4-((3,5-difluoro-6-methylpyridin-2-yl)thio)pyrazolo[1,5-a]pyridine-3-carbonitrile]", "IC50": 2}
{"smiles": "CC(=O)N1CCC(n2cc(-c3cc(Sc4ccc(F)cc4C#N)c4c(C#N)cnn4c3)c(C)n2)CC1", "note": "[Example 432, 6-(1-(1-acetylpiperidin-4-yl)-3-methyl-1H-pyrazol-4-yl)-4-((2-cyano-4-fluorophenyl)thio)pyrazolo [1,5-a]pyridine-3-carbonitrile]", "IC50": 3}
{"smiles": "Cc1c(-c2cc(Sc3ccc(F)cc3C#N)c3c(C#N)cnn3c2)cnn1[C@H]1CCCN(c2ncccn2)C1", "note": "[Example 433, (S)-4-((2-cyano-4-fluorophenyl)thio)-6-(5-methyl-1-(1-(pyrimidin-2-yl)piperidin-3-yl)-1H-pyrazol-4-yl)pyrazolo[1,5-a]pyridine-3-carbonitrile]", "IC50": 5}
{"smiles": "Cc1c(-c2cc(Sc3ncccc3C#N)c3c(C#N)cnn3c2)cnn1[C@H]1CCCNC1", "note": "[Example 434, (S)-4-((3-cyanopyridin-2-yl)thio)-6-(5-methyl-1-(piperidin-3-yl)-1H-pyrazol-4-yl)pyrazolo[1,5-a]pyridine-3-carbonitrile]", "IC50": 1}
{"smiles": "N#Cc1cc(F)ccc1Sc1cc(-c2cnn([C@H]3CCCNC3)c2)cn2ncc(C#N)c12", "note": "[Example 435, (S)-4-((2-cyano-4-fluorophenyl)thio)-6-(1-(piperidin-3-yl)-1H-pyrazol-4-yl)pyrazolo[1,5-a]pyridine-3-carbonitrile]", "IC50": 1}
{"smiles": "CC(=O)N1CCC(n2ncc(-c3cc(Sc4ccccc4C#N)c4c(C#N)cnn4c3)c2C)CC1", "note": "[Example 436, 6-(1-(1-acetylpiperidin-4-yl)-5-methyl-1H-pyrazol-4-yl)-4-((2-cyanophenyl)thio)pyrazolo [1,5-a]pyridine-3-carbonitrile]", "IC50": 1}
{"smiles": "Cc1c(-c2cc(Sc3ccccc3C#N)c3c(C#N)cnn3c2)cnn1C1CCN(C(=O)C(C)(C)C)CC1", "note": "[Example 437, 4-((2-cyanophenyl)thio)-6-(5-methyl-1-(1-pivaloylpiperidin-4-yl)-1H-pyrazol-4-yl)pyrazolo[1,5-a]pyridine-3-carbonitrile]", "IC50": 1}
{"smiles": "Cc1c(-c2cc(Sc3ccc(F)cc3C#N)c3c(C#N)cnn3c2)cnn1[C@H]1CC[C@@](O)(CO)CC1", "note": "[Example 438, 4-(2-cyano-4-fluoro-phenyl) sulfanyl-6-[1-[4-hydroxy-4-(hydroxymethyl)cyclohexyl]-5-methylpyrazol-4-yl] pyrazolo[1,5-a]pyridine-3-carbonitrile]", "IC50": 1}
{"smiles": "Cc1c(-c2cc(Sc3ccc(F)cc3C#N)c3c(C#N)cnn3c2)cnn1[C@@H]1CNC(C)(C)C1", "note": "[Example 439, (S)-4-((2-cyano-4-fluorophenyl)thio)-6-(1-(5,5-dimethylpyrrolidin-3-yl)-5-methyl-1H-pyrazol-4-yl)pyrazolo[1,5-a]pyridine-3-carbonitrile]", "IC50": 1}
{"smiles": "Cc1c(-c2cc(Sc3ccc(F)cc3C#N)c3c(C#N)cnn3c2)cnn1[C@H]1CNC(C)(C)C1", "note": "[Example 440, (R)-4-((2-cyano-4-fluorophenyl)thio)-6-(1-(5,5-dimethylpyrrolidin-3-yl)-5-methyl-1H-pyrazol-4-yl)pyrazolo[1,5-a]pyridine-3-carbonitrile]", "IC50": 2}
{"smiles": "Cc1nn([C@H]2CC[C@H](O)CC2)cc1-c1cc(Sc2ccccc2C#N)c2c(C#N)cnn2c1", "note": "[Example 441, 4-((2-cyanophenyl)thio)-6-(1-((1r,4r)-4-hydroxycyclohexyl)-3-methyl-1H-pyrazol-4-yl)pyrazolo[1,5-a]pyridine-3-carbonitrile]", "IC50": 3}
{"smiles": "Cc1nn([C@H]2CC[C@H](O)CC2)cc1-c1cc(Sc2ncccc2F)c2c(C#N)cnn2c1", "note": "[Example 442, 4-((3-fluoropyridin-2-yl)thio)-6-(1-((1r,4r)-4-hydroxycyclohexyl)-3-methyl-1H-pyrazol-4-yl)pyrazolo[1,5-a]pyridine-3-carbonitrile]", "IC50": 8}
{"smiles": "Cc1nn([C@H]2CC[C@H](O)CC2)cc1-c1cc(Sc2ccc(F)cc2C#N)c2c(C#N)cnn2c1", "note": "[Example 443, 4-((2-cyano-4-fluorophenyl)thio)-6-(1-((1r,4r)-4-hydroxycyclohexyl)-3-methyl-1H-pyrazol-4-yl)pyrazolo[1,5-a]pyridine-3-carbonitrile]", "IC50": 4}
{"smiles": "CC(=O)N1CCC(n2cc(-c3cc(Sc4ccccc4C#N)c4c(C#N)cnn4c3)cn2)CC1", "note": "[Example 444, 6-(1-(1-acetylpiperidin-4-yl)-1H-pyrazol-4-yl)-4-((2-cyanophenyl)thio)pyrazolo [1,5-a]pyridine-3-carbonitrile]", "IC50": 0.3}
{"smiles": "N#Cc1cc(F)ccc1Sc1cc(-c2cnn(C3CCN(C(=O)CO)CC3)c2)cn2ncc(C#N)c12", "note": "[Example 445, 4-((2-cyano-4-fluorophenyl)thio)-6-(1-(1-(2-hydroxyacetyl)piperidin-4-yl)-1H-pyrazol-4-yl)pyrazolo[1,5-a]pyridine-3-carbonitrile]", "IC50": 1}
{"smiles": "N#Cc1ccccc1Sc1cc(-c2cnn(C3CCN(C(=O)CO)CC3)c2)cn2ncc(C#N)c12", "note": "[Example 446, 4-((2-cyanophenyl)thio)-6-(1-(1-(2-hydroxyacetyl)piperidin-4-yl)-1H-pyrazol-4-yl)pyrazolo[1,5-a]pyridine-3-carbonitrile]", "IC50": 0.5}
{"smiles": "C[C@@H](O)C(=O)N1CCC(n2cc(-c3cc(Sc4ccccc4C#N)c4c(C#N)cnn4c3)cn2)CC1", "note": "[Example 447]", "IC50": 0.4}
{"smiles": "C[C@H](O)C(=O)N1CCC(n2cc(-c3cc(Sc4ccccc4C#N)c4c(C#N)cnn4c3)cn2)CC1", "note": "[Example 448, (S)-4-((2-cyanophenyl)thio)-6-(1-(1-(2-hydroxypropanoyl)piperidin-4-yl)-1H-pyrazol-4-yl)pyrazolo[1,5-a]pyridine-3-carbonitrile]", "IC50": 0.3}
{"smiles": "CC(C)n1cc(-c2cc(Sc3ncccc3F)c3c(C#N)cnn3c2)cn1", "note": "[Example 449, 4-((3-fluoropyridin-2-yl)thio)-6-(1-isopropyl-1H-pyrazol-4-yl)pyrazolo[1,5-a]pyridine-3-carbonitrile]", "IC50": 2}
